ChEMBL document CHEMBL1201862, “PubChem BioAssay data set” (2004)
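These data come from cells grown in 96-well plates and exposed to compound for 48 hours at five concentrations. GI50 = concentration required for 50% inhibition of growth.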 Calls of active or inactive are those of the source. Rule as the data show it: active = GI50 up to about 1.1 µM and inactive = higher.

Key:
Assay in all cases: NCI anticancer screen, dose series, 48 h
786-0 = system: 786-0
A549 = system: A549
ACHN = system: ACHN
BT-549 = system: BT-549
CAKI-1 = system: CAKI-1
CCRF-CEM = system: CCRF-CEM
COLO 205 = system: COLO 205
DU-145 = system: DU-145
EKVX = system: EKVX
HCC 2998 = system: HCC 2998
HCT-116 = system: HCT-116
HCT-15 = system: HCT-15
HL-60 = system: HL-60
HOP-62 = system: HOP-62
HOP-92 = system: HOP-92
HT-29 = system: HT-29
Hs-578T = system: Hs-578T
IGROV-1 = system: IGROV-1
K562 = system: K562
KM12 = system: KM12
LOX IMVI = system: LOX IMVI
M14 = system: M14
MCF7 = system: MCF7
MDA-MB-231 = system: MDA-MB-231
MDA-MB-435 = system: MDA-MB-435
MDA-N = system: MDA-N
MOLT-4 = system: MOLT-4
NCI-H226 = system: NCI-H226
NCI-H23 = system: NCI-H23
NCI-H460 = system: NCI-H460
NCI-H522 = system: NCI-H522
NCI/ADR-RES = system: NCI/ADR-RES
OVCAR-3 = system: OVCAR-3
OVCAR-8 = system: OVCAR-8
PC-3 = system: PC-3
RPMI-8226 = system: RPMI-8226
RXF 393 = system: RXF 393
SF-268 = system: SF-268
SF-295 = system: SF-295
SF-539 = system: SF-539
SK-MEL-28 = system: SK-MEL-28
SK-MEL-2 = system: SK-MEL-2
SK-MEL-5 = system: SK-MEL-5
SK-OV-3 = system: SK-OV-3
SN12C = system: SN12C
SNB-19 = system: SNB-19
SNB-75 = system: SNB-75
SR = system: SR
SW-620 = system: SW-620
T47D = system: T47D
TK-10 = system: TK-10
U-251 = system: U-251
UACC-257 = system: UACC-257
UACC-62 = system: UACC-62
UO-31 = system: UO-31
A498 = system: A498
Malme-3M = system: Malme-3M
OVCAR-4 = system: OVCAR-4
OVCAR-5 = system: OVCAR-5

C/N=c1/oc2ccccc2cc1C(N)=O
GI50 (786-0): > 100 µM (inactive)
GI50 (A549): > 100 µM (inactive)
GI50 (ACHN): > 100 µM (inactive)
GI50 (BT-549): > 100 µM (inactive)
GI50 (CAKI-1): > 100 µM (inactive)
GI50 (CCRF-CEM): > 100 µM (inactive)
GI50 (COLO 205): > 100 µM (inactive)
GI50 (DU-145): > 100 µM (inactive)
GI50 (EKVX): 30.8 µM (inactive)
GI50 (HCC 2998): > 100 µM (inactive)
GI50 (HCT-116): > 100 µM (inactive)
GI50 (HCT-15): > 100 µM
GI50 (HL-60): > 100 µM (inactive)
GI50 (HOP-62): > 100 µM (inactive)
GI50 (HOP-92): > 100 µM (inactive)
GI50 (HT-29): > 100 µM (inactive)
GI50 (Hs-578T): 16.9 µM (inactive)
GI50 (IGROV-1): 53.3 µM (inactive)
GI50 (K562): > 100 µM (inactive)
GI50 (KM12): > 100 µM (inactive)
GI50 (LOX IMVI): > 100 µM (inactive)
GI50 (M14): > 100 µM (inactive)
GI50 (MCF7): 87.7 µM (inactive)
GI50 (MDA-MB-231): > 100 µM (inactive)
GI50 (MDA-MB-435): > 100 µM (inactive)
GI50 (MDA-N): > 100 µM (inactive)
GI50 (MOLT-4): > 100 µM (inactive)
GI50 (NCI-H226): > 100 µM (inactive)
GI50 (NCI-H23): > 100 µM (inactive)
GI50 (NCI-H460): > 100 µM (inactive)
GI50 (NCI-H522): > 100 µM (inactive)
GI50 (NCI/ADR-RES): > 100 µM (inactive)
GI50 (OVCAR-3): > 100 µM (inactive)
GI50 (OVCAR-8): > 100 µM (inactive)
GI50 (PC-3): > 100 µM (inactive)
GI50 (RPMI-8226): > 100 µM (inactive)
GI50 (RXF 393): > 100 µM (inactive)
GI50 (SF-268): > 100 µM (inactive)
GI50 (SF-295): > 100 µM (inactive)
GI50 (SF-539): > 100 µM (inactive)
GI50 (SK-MEL-28): > 100 µM (inactive)
GI50 (SK-MEL-2): > 100 µM (inactive)
GI50 (SK-MEL-5): > 100 µM (inactive)
GI50 (SK-OV-3): > 100 µM (inactive)
GI50 (SN12C): > 100 µM (inactive)
GI50 (SNB-19): 56.4 µM (inactive)
GI50 (SNB-75): > 100 µM (inactive)
GI50 (SR): > 100 µM (inactive)
GI50 (SW-620): > 100 µM (inactive)
GI50 (T47D): > 100 µM (inactive)
GI50 (TK-10): > 100 µM (inactive)
GI50 (U-251): > 100 µM (inactive)
GI50 (UACC-257): > 100 µM (inactive)
GI50 (UACC-62): 64.1 µM (inactive)
GI50 (UO-31): 58.2 µM (inactive)

Cn1c(N)c(/C=N/NC(=O)CC#N)c(=O)n(C)c1=O
GI50 (786-0): > 100 µM (inactive)
GI50 (A498): > 100 µM (inactive)
GI50 (A549): > 100 µM (inactive)
GI50 (ACHN): > 100 µM (inactive)
GI50 (BT-549): > 100 µM (inactive)
GI50 (CAKI-1): > 100 µM (inactive)
GI50 (CCRF-CEM): > 100 µM (inactive)
GI50 (COLO 205): > 100 µM (inactive)
GI50 (DU-145): > 100 µM (inactive)
GI50 (EKVX): > 100 µM (inactive)
GI50 (HCC 2998): > 100 µM (inactive)
GI50 (HCT-116): > 100 µM (inactive)
GI50 (HCT-15): > 100 µM
GI50 (HOP-62): > 100 µM (inactive)
GI50 (HT-29): > 100 µM (inactive)
GI50 (Hs-578T): > 100 µM (inactive)
GI50 (IGROV-1): > 100 µM (inactive)
GI50 (KM12): > 100 µM (inactive)
GI50 (LOX IMVI): > 100 µM (inactive)
GI50 (M14): > 100 µM (inactive)
GI50 (MCF7): > 100 µM (inactive)
GI50 (MDA-MB-231): > 100 µM (inactive)
GI50 (MDA-MB-435): > 100 µM (inactive)
GI50 (MDA-N): > 100 µM (inactive)
GI50 (MOLT-4): > 100 µM (inactive)
GI50 (Malme-3M): 59.8 µM (inactive)
GI50 (NCI-H226): > 100 µM (inactive)
GI50 (NCI-H460): > 100 µM (inactive)
GI50 (NCI-H522): > 100 µM (inactive)
GI50 (NCI/ADR-RES): > 100 µM (inactive)
GI50 (OVCAR-3): > 100 µM (inactive)
GI50 (OVCAR-4): > 100 µM (inactive)
GI50 (OVCAR-5): > 100 µM (inactive)
GI50 (OVCAR-8): > 100 µM (inactive)
GI50 (PC-3): > 100 µM (inactive)
GI50 (RPMI-8226): > 100 µM (inactive)
GI50 (RXF 393): > 100 µM (inactive)
GI50 (SF-268): > 100 µM (inactive)
GI50 (SF-295): > 100 µM (inactive)
GI50 (SK-MEL-28): > 100 µM (inactive)
GI50 (SK-MEL-2): > 100 µM (inactive)
GI50 (SK-MEL-5): > 100 µM (inactive)
GI50 (SK-OV-3): > 100 µM (inactive)
GI50 (SN12C): > 100 µM (inactive)
GI50 (SNB-19): > 100 µM (inactive)
GI50 (SNB-75): > 100 µM (inactive)
GI50 (SR): > 100 µM (inactive)
GI50 (SW-620): > 100 µM (inactive)
GI50 (T47D): > 100 µM (inactive)
GI50 (TK-10): > 100 µM (inactive)
GI50 (U-251): > 100 µM (inactive)
GI50 (UACC-257): > 100 µM (inactive)
GI50 (UACC-62): > 100 µM (inactive)
GI50 (UO-31): > 100 µM (inactive)
